Results from ChEMBL document CHEMBL1132042, “Macrocyclic hydroxamate inhibitors of matrix metalloproteinases and TNF-alpha production” (Bioorg Med Chem Lett, 1999).

What was measured:
[1] = target: T1, Interstitial collagenase (Homo sapiens, UniProt P03956); test: Inhibition of MMP-1 (human fibroblast collagenase)
T1 sequence (P03956 whole entry): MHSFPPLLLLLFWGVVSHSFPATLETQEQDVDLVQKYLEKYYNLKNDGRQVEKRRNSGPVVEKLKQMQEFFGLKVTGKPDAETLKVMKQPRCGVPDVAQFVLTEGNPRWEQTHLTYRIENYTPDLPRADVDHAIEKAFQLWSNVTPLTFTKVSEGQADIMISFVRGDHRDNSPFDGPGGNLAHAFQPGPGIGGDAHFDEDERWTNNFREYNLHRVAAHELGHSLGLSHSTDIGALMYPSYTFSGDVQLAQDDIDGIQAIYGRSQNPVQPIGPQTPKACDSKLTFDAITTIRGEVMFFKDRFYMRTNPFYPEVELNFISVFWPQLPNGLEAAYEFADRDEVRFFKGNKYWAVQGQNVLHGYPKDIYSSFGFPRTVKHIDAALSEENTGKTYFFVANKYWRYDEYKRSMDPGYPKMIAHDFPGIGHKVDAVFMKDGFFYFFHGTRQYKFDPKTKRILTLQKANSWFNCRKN

[2] = target: Matrix metalloproteinase-9 (Homo sapiens, UniProt P14780); test: Inhibition of MMP-9 (matrix metalloprotease-9, gelatinase B)
Sequence of Matrix metalloproteinase-9 (P14780 whole entry): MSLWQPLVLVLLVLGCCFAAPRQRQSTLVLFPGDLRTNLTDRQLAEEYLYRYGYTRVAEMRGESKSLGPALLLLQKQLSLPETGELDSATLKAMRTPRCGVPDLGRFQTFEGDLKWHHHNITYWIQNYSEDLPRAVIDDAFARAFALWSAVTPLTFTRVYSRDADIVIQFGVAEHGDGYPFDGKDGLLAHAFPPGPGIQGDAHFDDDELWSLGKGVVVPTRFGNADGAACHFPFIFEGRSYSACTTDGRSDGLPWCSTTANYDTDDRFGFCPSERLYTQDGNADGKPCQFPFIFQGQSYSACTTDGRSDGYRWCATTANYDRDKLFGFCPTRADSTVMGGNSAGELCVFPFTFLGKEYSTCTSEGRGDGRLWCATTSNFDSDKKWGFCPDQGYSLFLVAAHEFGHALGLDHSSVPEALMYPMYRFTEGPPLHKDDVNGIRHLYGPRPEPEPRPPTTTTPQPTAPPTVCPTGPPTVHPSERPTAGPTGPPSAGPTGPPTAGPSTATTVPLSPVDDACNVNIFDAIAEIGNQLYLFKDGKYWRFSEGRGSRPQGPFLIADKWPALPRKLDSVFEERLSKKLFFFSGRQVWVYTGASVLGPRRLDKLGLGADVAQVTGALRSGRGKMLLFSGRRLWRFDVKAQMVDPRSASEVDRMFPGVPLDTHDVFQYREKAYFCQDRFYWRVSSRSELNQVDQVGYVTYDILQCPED

[3] = target: Stromelysin-1 (Homo sapiens, UniProt P08254); test: Inhibition of MMP-3 (human fibroblast stromelysin)
Sequence of Stromelysin-1 (P08254 whole entry): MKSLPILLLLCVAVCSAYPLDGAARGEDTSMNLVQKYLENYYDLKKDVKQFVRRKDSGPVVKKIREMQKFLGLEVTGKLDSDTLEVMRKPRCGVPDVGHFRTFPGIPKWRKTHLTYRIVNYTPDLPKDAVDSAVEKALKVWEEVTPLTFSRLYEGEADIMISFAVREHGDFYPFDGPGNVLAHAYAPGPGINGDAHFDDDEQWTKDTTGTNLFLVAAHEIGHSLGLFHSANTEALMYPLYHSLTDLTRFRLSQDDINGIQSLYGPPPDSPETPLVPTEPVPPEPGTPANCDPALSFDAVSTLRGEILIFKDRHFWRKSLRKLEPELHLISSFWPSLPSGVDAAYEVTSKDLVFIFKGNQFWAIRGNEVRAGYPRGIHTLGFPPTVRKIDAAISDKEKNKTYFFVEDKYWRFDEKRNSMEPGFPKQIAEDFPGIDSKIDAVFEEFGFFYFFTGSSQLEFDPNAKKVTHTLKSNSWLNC

[4] = species on record: Homo sapiens; test: Compound was tested for its ability to suppress the release of TNF-alpha (TNF-WBA) in human whole blood after stimulation with LPS.; type: functional, organism-based

Compound | Ki [1] [nM] | Ki [2] [nM] | Ki [3] [nM] | IC50 [4] [nM]
CNC(=O)[C@@H]1CCCCN(S(=O)(=O)C(F)(F)F)CCC[C@H](C(=O)NO)[C@@H](CC(C)C)C(=O)N1 | 4 | < 1 | 118 | 1300
CNC(=O)[C@@H]1CCCCN(S(=O)(=O)c2c(C)cc(C)cc2C)CCC[C@H](C(=O)NO)[C@@H](CC(C)C)C(=O)N1 | 2.3 | < 1 | 15 | 1600
CNC(=O)[C@@H]1CCCCN(S(=O)(=O)c2ccccc2)CCC[C@H](C(=O)NO)[C@@H](CC(C)C)C(=O)N1 | < 1 | < 1 | 3.4 | 1300

Next, values leading:

Ki [1] [nM] | Ki [2] [nM] | Ki [3] [nM] | IC50 [4] [nM] | Compound
< 1 | < 1 | 3 | 1400 | CNC(=O)[C@@H]1CCCCN(C(=O)OC(C)(C)C)CCC[C@H](C(=O)NO)[C@@H](CC(C)C)C(=O)N1
< 1 | 1.6 | 99 | 950 | CNC(=O)[C@@H]1CCCCN(S(=O)(=O)c2ccc(N)cc2)CCC[C@H](C(=O)NO)[C@@H](CC(C)C)C(=O)N1
< 1 | 2.7 | 12 | 1400 | CNC(=O)[C@@H]1CCCCN(S(=O)(=O)c2cn(C)cn2)CCC[C@H](C(=O)NO)[C@@H](CC(C)C)C(=O)N1
< 1 | 12.8 | – | 2700 | CNC(=O)[C@@H]1CCCCNCCC[C@H](C(=O)NO)[C@@H](CC(C)C)C(=O)N1
